A short description of assay [1]: Serum high density lipoprotein (HDL) cholesterol alteration by the compound at 50 mg/kg/day dose in normocholesterolemic Male S.E.A. Japanese quail with 5-7 weeks of age. The assay is classed as functional, Coturnix.
Assay [2] can be described thus: Serum lipoprotein (VLDL+LDL) cholesterol alteration by the compound at 50 mg/kg/day dose in normocholesterolemic Male S.E.A. Japanese quail with 5-7 weeks of age. The assay is classed as functional, Coturnix.
Assay [3] is described as follows: Total Serum lipoprotein cholesterol alteration by the compound at 50 mg/kg/day dose in normocholesterolemic Male S.E.A. Japanese quail with 5-7 weeks of age.

Turning to `COc1c2c(c(OC)c3c(=O)cc(C)oc13)CCO2`, the T/C in assay [1] came out at 1.17; in assay [2] it was 0.74; in assay [3], 1.07.

Regarding `COc1c2occc2c(OC)c2c(=O)cc(CN(C)C)oc12`, the T/C in assay [1] is 0.92; in assay [2] it was 0.37; in assay [3] it was 0.82.

For the molecule `COc1c2occc2c(OC)c2c(=O)cc(C(C)C)oc12`, the results for the T/C in assay [1], in assay [2] and in assay [3] were 1.4, 0.49 and 1.17, respectively.

As to `Cc1cc(=O)c2cc3ccoc3cc2o1`, the T/C in assay [1] was found to be 1.05; in assay [2], 0.84; in assay [3] it was 1.01.

As to `COc1c2occc2c(OC)c2c(=O)ccoc12`, the T/C is 1.36 in assay [1], 0.42 in assay [2] and 1.15 in assay [3].

Take `COc1c2c(c(OC)c3occc13)OC(C)CC2=O` (stereo unspecified): the T/C is recorded as 1.45 in assay [1], 0.55 in assay [2] and 1.24 in assay [3].

`COCc1cc(=O)c2c(OC)c3ccoc3c(OC)c2o1`: the results for the T/C in assay [1], in assay [2] and in assay [3] were 1.63, 0.57 and 1.35, respectively.

As for `COc1c2occc2c(OC)c2c(=O)cc(CSc3ccccc3)oc12`, the T/C was 1.33 in assay [1], 0.43 in assay [2] and 1.09 in assay [3].

On to `COc1c2occc2cc2c(=O)cc(C)oc12`, for which the T/C in assay [1] turned out to be 1.19; in assay [2] it was 0.77; in assay [3] it was 1.09.

With `COc1c2occc2c(OC)c2c(=O)cc(C)oc12` [KHELLIN], the T/C is 1.46 in assay [1], 0.37 in assay [2] and 1.21 in assay [3].

`COc1c2occc2c(OC)c2c(=O)cc(CSC)oc12` [TIMEFURONE]: the T/C in assay [1] amounted to 1.68; in assay [2], 0.47; in assay [3] it was 1.36.

Take `COc1c2ccoc2cc2oc(C)cc(=O)c12` [VISNAGIN]: the T/C in assay [1] worked out at 1.42; in assay [2], 0.51; in assay [3], 1.21.

These data come from ChEMBL document CHEMBL1122404, “Khellin analogues. 1. General topological requirements for lipid-altering activity in furochromones” (1983).
